Patent publication US20260217711A1, “TRIAZOLOPYRIDINYL ETHER LINKED COMPOUNDS AS KINASE INHIBITORS” (Bristol-Myers Squibb Company, priority 2023, published 2026)

system: MLKL phosphorylation (pMLKL) in HT29-L23 cells; assay: MLKL Phosphorylation High-Content Assay; format: cell-based; conditions: Homo sapiens, 6 h, necroptosis induced with human TNFα, SMAC mimetic and Z-VAD, read-out: LE pMLKL HC IC50
How it was run: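 HT29-L23 cells incubated 6 h at 37° C before detection of phospho-MLKL by immunostaining with anti-phospho-MLKL antibody (1:1000 in PBS/0.1% BSA, overnight at 4° C). Readout by high-content imaging with compartmental image analysis.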

Q: `CC(C)CC(O)C(F)(F)CCOc1cccc(-c2ccn3nc(N)nc3c2)c1F` (single isomer, unassigned) [Example 6, 1-(3-(2-amino-[1,2,4]triazolo[1,5-a]pyridin-7-yl)-2-fluorophenoxy)-3,3-difluoro-6-methylheptan-4-ol] was tested. Which IC50 did it give?
A: 80 nM

Q: For `Nc1nc2cc(-c3ccc(Cl)c(OCCC(F)C(O)c4ccc(F)cc4)c3F)ccn2n1` (single isomer, unassigned) [Example 82, 4-(3-(2-amino-[1,2,4]triazolo[1,5-a]pyridin-7-yl)-6-chloro-2-fluorophenoxy)-2-fluoro-1-(4-fluorophenyl)butan-1-ol], which IC50 is on record?
A: 26 nM

same assay, conditions: necroptosis induced with human TNFα, SMAC mimetic and Z-VAD, 6 h, read-out: LE pMLKL HC IC50

Q: Which IC50 does the source give for `CC(O)(c1ccc(Cl)cc1)C(F)(F)CCOc1cccc(-c2ccn3nc(N)nc3c2)c1F` (single isomer, unassigned) [Example 48, 5-(3-(2-amino-[1,2,4]triazolo[1,5-a]pyridin-7-yl)-2-fluorophenoxy)-2-(4-chlorophenyl)-3,3-difluoropentan-2-ol] here?
A: 0.1 nM

Q: For `CC(C)(CC(F)(F)C(C)(O)c1ccc(F)cc1)Oc1c(F)ccc(-c2ccn3nc(N)nc3c2)c1F` (single isomer, unassigned) [Example 131, 5-(3-(2-amino-[1,2,4]triazolo[1,5-a]pyridin-7-yl)-2,6-difluorophenoxy)-3,3-difluoro-2-(4-fluorophenyl)-5-methylhexan-2-ol], which IC50 is on record?
A: 3.4 nM

Q: Which IC50 does the source give for `CC(O)(c1ccc(F)cc1)C(F)(F)CCOc1cc(-c2ccn3nc(N)nc3c2)ccc1F` (single isomer, unassigned) [Example 58, 5-(5-(2-amino-[1,2,4]triazolo[1,5-a]pyridin-7-yl)-2-fluorophenoxy)-3,3-difluoro-2-(4-fluorophenyl)pentan-2-ol] here?
A: 5 nM

Q: With `Nc1nc2cc(-c3ccc(F)c(OCCC(F)(F)C(O)c4ccc(F)cc4)c3F)ccn2n1` (single isomer, unassigned) [Example 55, 4-(3-(2-amino-[1,2,4]triazolo[1,5-a]pyridin-7-yl)-2,6-difluorophenoxy)-2,2-difluoro-1-(4-fluorophenyl)butan-1-ol] as the compound, how does the IC50 read?
A: 0.3 nM

Q: How did the IC50 turn out when `Nc1nc2cc(-c3ccc(Cl)c(OCCC(F)C(O)c4ccc(F)cc4)c3F)ccn2n1` (single isomer, unassigned) [Example 83, 4-(3-(2-amino-[1,2,4]triazolo[1,5-a]pyridin-7-yl)-6-chloro-2-fluorophenoxy)-2-fluoro-1-(4-fluorophenyl)butan-1-ol] was run?
A: 26 nM

Q: How did the IC50 turn out when `CC(O)(c1ccc(F)cn1)C(F)(F)CCOc1c(Cl)ccc(-c2ccn3nc(N)nc3c2)c1F` (single isomer, unassigned) [Example 32, 5-(3-(2-amino-[1,2,4]triazolo[1,5-a]pyridin-7-yl)-6-chloro-2-fluorophenoxy)-3,3-difluoro-2-(5-fluoropyridin-2-yl)pentan-2-ol] was run?
A: 30 nM

Q: How did the IC50 turn out when `Nc1nc2cc(-c3ccc(C(F)(F)F)c(OCCC(F)C(O)c4ccc(F)cc4)c3F)ccn2n1` (single isomer, unassigned) [Example 112, 4-(3-(2-amino-[1,2,4]triazolo[1,5-a]pyridin-7-yl)-2-fluoro-6-(trifluoromethyl)phenoxy)-2-fluoro-1-(4-fluorophenyl)butan-1-ol] was run?
A: 730 nM

Q: `CC(O)(c1ccc(F)cc1)C(F)CCOc1cccc(-c2ccn3nc(N)nc3c2)c1F` (single isomer, unassigned) [Example 91, 5-(3-(2-amino-[1,2,4]triazolo[1,5-a]pyridin-7-yl)-2-fluorophenoxy)-3-fluoro-2-(4-fluorophenyl)pentan-2-ol] was tested. Which IC50 did it give?
A: 0.3 nM

Q: How did the IC50 turn out when `CC(O)(c1ccc(F)cc1)C(F)(F)CCOc1cc(-c2ccn3nc(N)nc3c2)ccc1F` (single isomer, unassigned) [Example 57, 5-(5-(2-amino-[1,2,4]triazolo[1,5-a]pyridin-7-yl)-2-fluorophenoxy)-3,3-difluoro-2-(4-fluorophenyl)pentan-2-ol] was run?
A: 130 nM

Q: With `CC(O)(c1ccc(F)cc1)C(F)CCOc1cc(-c2ccn3nc(N)nc3c2)cc(F)c1F` (single isomer, unassigned) [Example 92, 5-(5-(2-amino-[1,2,4]triazolo[1,5-a]pyridin-7-yl)-2,3-difluorophenoxy)-3-fluoro-2-(4-fluorophenyl)pentan-2-ol] as the compound, how does the IC50 read?
A: 1390 nM

Q: `CC(CC(F)(F)C(C)(O)c1ccc(F)cc1)Oc1c(F)ccc(-c2ccn3nc(N)nc3c2)c1F` (single isomer, unassigned) [Example 127, 5-(3-(2-amino-[1,2,4]triazolo[1,5-a]pyridin-7-yl)-2,6-difluorophenoxy)-3,3-difluoro-2-(4-fluorophenyl)hexan-2-ol] was tested. Which IC50 did it give?
A: 1.1 nM

Q: How did the IC50 turn out when `CC(O)(c1ccc(F)cc1)C(F)(F)CCOc1ccc(F)c(-c2ccn3nc(N)nc3c2)n1` (single isomer, unassigned) [Example 78, 5-((6-(2-amino-[1,2,4]triazolo[1,5-a]pyridin-7-yl)-5-fluoropyridin-2-yl)oxy)-3,3-difluoro-2-(4-fluorophenyl)pentan-2-ol] was run?
A: 13 nM

Q: Which IC50 does the source give for `Nc1nc2cc(-c3ccc(F)c(OCCC(F)C(O)c4ccc(F)cc4)c3F)ccn2n1` (single isomer, unassigned) [Example 103, 4-(3-(2-amino-[1,2,4]triazolo-[1,5-a]pyridin-7-yl)-2,6-difluorophenoxy)-2-fluoro-1-(4-fluorophenyl)butan-1-ol] here?
A: 1.5 nM

Q: Which IC50 does the source give for `Cc1ccc(-c2ccn3nc(N)nc3c2)c(F)c1OCCC(F)C(F)(F)c1ccc(F)cc1` (single isomer, unassigned) [Example 121, 7-(2-fluoro-4-methyl-3-(3,4,4-trifluoro-4-(4-fluorophenyl)butoxy)phenyl)-[1,2,4]triazolo[1,5-a]pyridin-2-amine] here?
A: 89 nM

Q: How did the IC50 turn out when `Nc1nc2cc(-c3ccc(C(F)(F)F)c(OCCC(F)C(O)c4ccc(F)cc4)c3F)ccn2n1` (single isomer, unassigned) [Example 110, 4-(3-(2-amino-[1,2,4]triazolo[1,5-a]pyridin-7-yl)-2-fluoro-6-(trifluoromethyl)phenoxy)-2-fluoro-1-(4-fluorophenyl)butan-1-ol] was run?
A: 360 nM

Q: How did the IC50 turn out when `Cc1ccc(-c2ccn3nc(N)nc3c2)c(F)c1OCCC(F)C(F)(F)c1ccc(F)cc1` (single isomer, unassigned) [Example 120, 7-(2-fluoro-4-methyl-3-(3,4,4-trifluoro-4-(4-fluorophenyl)butoxy)phenyl)-[1,2,4]triazolo[1,5-a]pyridin-2-amine] was run?
A: 9.6 nM

Q: Which IC50 does the source give for `CC(O)(c1ccc(F)cc1)C(F)(F)CCOc1cccc(-c2ccn3nc(N)nc3c2)c1C(F)F` (single isomer, unassigned) [Example 24, 5-(3-(2-amino-[1,2,4]triazolo[1,5-a]pyridin-7-yl)-2-(difluoromethyl)phenoxy)-3,3-difluoro-2-(4-fluorophenyl)pentan-2-ol] here?
A: 6000 nM

Q: With `CC(O)(c1ccccc1)C(F)(F)CCOc1c(Cl)ccc(-c2ccn3nc(N)nc3c2)c1F` (single isomer, unassigned) [Example 41, 5-(3-(2-amino-[1,2,4]triazolo[1,5-a]pyridin-7-yl)-6-chloro-2-fluorophenoxy)-3,3-difluoro-2-phenylpentan-2-ol] as the compound, how does the IC50 read?
A: 0.4 nM

Q: `Nc1nc2cc(-c3ccc(F)c(OCCC(F)(F)C(O)c4ccc(F)cn4)c3F)ccn2n1` (single isomer, unassigned) [Example 33, 4-(3-(2-amino-[1,2,4]triazolo[1,5-a]pyridin-7-yl)-2,6-difluorophenoxy)-2,2-difluoro-1-(5-fluoropyridin-2-yl)butan-1-ol] was tested. Which IC50 did it give?
A: 85 nM
